Source: paper PMC9961652 (International Journal of Molecular Sciences, 2023)
Like-named read-outs stand apart in the source and are kept apart here.

Experiments:
washed human platelets = assay: Collagen-induced platelet aggregation, light transmission aggregometry (Born method); format: cell-based; settings: for activity at 20 µM / IC50: Platelet; for activity at 20 µM: compound 20 µM, means ± SDs of three experiments, 100% = agonist alone; for IC50: Homo sapiens; for activity in collagen-induced platelet aggregation (SAR statement): relative to the quinoline analogs
Method: Light transmission aggregometry, i.e., the Born method, was used to determine in vitro antiplatelet aggregation activity using collagen as the agonist for platelet aggregation. Collagen was selected as the agonist, since it is the most thrombogenic component of the subendothelial layer. Collagen also serves as a substrate for platelet adhesion and as an inducer of platelet activation.
All experiments using human blood from healthy volunteers were performed according to the protocols approved by the Institutional Review Board at Cincinnati Children’s Hospital Medical Center, Cincinnati, Ohio. Each volunteer was required to sign an informed consent form approved by the IRB. Procedures for drawing human blood, isolating platelet-rich plasma (PRP), and preparing washed platelet suspensions were the same as those previously reported. […] PRP was obtained by means of the centrifugation of blood at 1400 rpm for 15 min at room temperature. PRP was centrifuged at 4000 rpm for 10 min at room temperature, and the platelet pellet was resuspended in HEPES Tyrode’s solution (pH 7.4) without calcium. Platelets were counted using Hemavet 950FS (Drew Scientific, Oxford, CT, USA), and the count was adjusted to 2.5 × 10^8/mL for aggregation studies.
The in vitro antiplatelet activity of the compounds was assayed on washed human platelets using light transmission aggregometry. Platelet aggregation was performed using a 4-channel Lumi-aggregometer (Chronolog, PA, USA) at 37 °C and stirring speed of 900 rpm. A volume of 250 µL of washed human platelets (2.5 × 10^8/mL) was pre-warmed to 37 °C along with the compounds or DMSO (0.1%) for 2 min before the addition of agonists such as collagen, AA, U46619 (a stable synthetic analog of thromboxane A2), ADP, and thrombin. For ATP secretion, platelets were pre-incubated with a luciferin/luciferase kit (Chrono-lume®) for 30 s at 37 °C before the addition of the agonist. The reactions were allowed to proceed for at least 4 min, and the results of platelet aggregation and ATP secretion were determined using Aggrolink software. Platelet aggregation was expressed as the maximum change in the light transmission, where the 100% value corresponded to treatment with the agonist alone. Compounds were evaluated in triplicate at nine compound concentrations ranging from 50 µM to 1 µM.

RhoA = assay: RhoA-GTP formation, GST-Rhotekin effector pull-down assay in collagen-stimulated platelets; format: cell-based, human; settings: 20 µM, 2 min pre-incubation; collagen 1 µg/mL for 4 min
Method: Next, the ability of the six compounds to suppress RhoA activity in platelets was assessed by subjecting them to a GST (Glutathione-S-transferase)-Rhotekin effector pull-down assay. The compounds were incubated with washed human platelets for 2 min before being stimulated with 1 µg/mL collagen. The analogs inhibited the activation of RhoA at the 20 µM concentration (Figure 2A,B). […] After confirming that these analogs could prevent RhoA activation and the phosphorylation of the MLC, their ability to disrupt complex-formation between RhoA and LARG was tested. […] These findings indicate that the active analogs inhibit RhoA activation by disrupting the binding between RhoA and its GEF.
(A,B) Washed human platelets were incubated with collagen (1 µg/mL) for 4 min, and the levels of RhoA-GTP formation were quantified with a GST-Rhotekin effector pull-down assay. The platelets were pre-incubated with 20 µM UC-177618, UC-177619, UC-177628, UC-177629, […], or […] for 2 min before being stimulated with collagen. The addition of ice-cold lysis buffer terminated the reaction. […] Relative amounts of the GTP-bound form of RhoA were quantified with densitometry measurements of total RhoA (T-RhoA) and normalized to untreated platelets. (C,D) The addition of 20 µM of active Rhosin-related compounds to washed human platelets 2 min before stimulation with collagen blocked the phosphorylation of the myosin light chain (p-MLC). The reactions were terminated after 4 min by adding 4x Laemmli sample buffer. The samples were processed for Western blotting and probed for MLC and p-MLC, and phosphorylation was quantified by measuring the densitometry of total MLC (T-MLC). The differences between DMSO- and Rhosin-related compounds were analyzed with t-test, and the results are shown as means ± SDs of three independent experiments. (* p < 0.05, ** p < 0.01, *** p < 0.001, and **** p < 0.0001).
The relative levels of RhoA-GTP in washed human platelets were quantified with effector domains GST-Rhotekin pull-down assays as previously reported. A volume of 250 µL of washed human platelets (2.5 × 10^8/mL) was pre-warmed to 37 °C along with the compounds or DMSO (0.1%) for 2 min before being stimulated with collagen (1 µg/mL). The reactions were terminated 4 min after collagen stimulation by adding ice-cold lysis buffer (20 mM Tris·HCl (pH 7.6), 100 mM NaCl, 1% Triton X-100, 0.2% Sodium Deoxycholate, 10 mM MgCl2, 1 mM dithiothreitol, 1x protease inhibitor cocktail, and 1x phosphatase inhibitor cocktail). The supernatants were collected and subjected to the GST-Rhotekin pull-down assay. The total cell lysates were also blotted in parallel. GTP-bound RhoA was quantitatively detected with Western blotting using an anti-RhoA antibody. The relative amounts of RhoA were quantified with densitometry measurements and normalized to the untreated platelets.

[1] = washed human platelets, read-out: % Platelet Aggregation, Collagen (1 µg/mL)
[2] = washed human platelets, read-out: % Platelet Aggregation, Collagen (5 µg/mL)
[3] = collagen-induced platelet aggregation, compounds without IC50 determination estimated from percent inhibition at 20 µM, read-out: IC50 (SAR table)
[4] = collagen 1 µg/mL, washed human platelets, dose-response curves, read-out: IC50 (95% CI) of platelet aggregation

| SMILES | activity at 20 µM (washed human platelets; [1]) | activity at 20 µM (washed human platelets; [2]) | IC50 (washed human platelets; [3]) | activity in collagen-induced platelet aggregation (SAR statement) (washed human platelets) | RhoA-GTP formation (RhoA) | IC50 (washed human platelets; [4]) |
| --- | --- | --- | --- | --- | --- | --- |
| Cc1[nH]c2ccccc2c1/C=N/NC(=O)c1cccnc1 [UC-390484] | 81 ± 14% | 88.1 ± 10% |  |  |  |  |
| Cc1ccc(C)c(OCC(=O)N/N=C/c2cn(Cc3ccccc3)c3ccccc23)c1C [UC-436352] | 84.7 ± 15.5% | 89 ± 2.5% |  |  |  |  |
| COc1cc(/C=N/NC(=O)C2COc3ccccc3O2)ccc1O (centres unmarked) [UC-392453] | 90.7 ± 8.5% | 94.7 ± 11.2% |  |  |  |  |
| O=C(NNc1ccnc2ccccc12)c1ccc(Cl)c(Cl)c1 [UC-177617] | 13 ± 10.4% | 26.8 ± 9% | 5.64 µM |  |  |  |
| Cc1cc(NNC(=O)c2cc3ccccc3[nH]2)nc2ccccc12 [UC-177630] | 73 ± 21.6% | 85 ± 15.3% | > 20 µM | lost all activity |  |  |
| O=C(NNC1CCc2ccccc21)c1cc2ccccc2[nH]1 (centres unmarked) [UC-178838] | 7.3 ± 5.8% | 13.7 ± 7.9% | 3.55 µM | nearly equipotent |  |  |
| O=C(NNc1ccnc2cc(Cl)ccc12)c1cc2ccccc2[nH]1 [UC-177629] | 7.3 ± 5.9% | 10.8 ± 3% | 2.39 µM |  | inhibited RhoA-GTP formation |  |
| S=C(NNc1ccnc2cc(Cl)ccc12)Nc1ccccc1Cl [UC-936377] | 61.3 ± 4.5% | 71.7 ± 5.3% |  |  |  |  |
| CN(Cc1ccccc1)C(=O)C(N)Cc1c[nH]c2ccccc12 (centres unmarked) [UC-651009] | 86 ± 1.7% | 89.2 ± 10.6% |  |  |  |  |
| O=C(N/N=C/c1ccc(O)cc1)c1cc2ccccc2[nH]1 [UC-612333] | 70 ± 5.6% | 78.6 ± 14.9% |  |  |  |  |
| O=C1OCCN1NC1CCOc2ccc(-n3cc[nH]c3=S)cc21 (centres unmarked) [UC-177639] | 80 ± 17.3% | 90.4 ± 9.1% |  |  |  |  |
| O=C1OCCN1Nc1ccnc2cc(C(F)(F)F)ccc12 [UC-177614] | 87.3 ± 9.6% | 90 ± 3.1% |  |  |  |  |
| Cc1ccc(C(=O)NNc2ccnc3ccccc23)cc1 [UC-177631] | 87.7 ± 13.1% | 90.4 ± 3.7% | > 20 µM |  |  |  |
| O=C(NNc1ccnc2cc(C(F)(F)F)ccc12)c1cc2ccccc2[nH]1 [UC-177627] | 17.7 ± 11.4% | 19 ± 17.7% | 2.23 µM |  |  | 2.22 µM |
| COc1ccc2cc(/C=N/NC(=O)Cc3c[nH]c4ccccc34)ccc2c1 [UC-391695] | 79 ± 8% | 84.8 ± 12.1% |  |  |  |  |
| Cc1ccc(C(=O)NNc2ccnc3cc(Cl)ccc23)cc1 [UC-177634] | 17 ± 2.6% | 24.5 ± 3.9% | 4.59 µM |  |  |  |
| Cc1[nH]c2ccccc2c1CCNC(=O)c1ccc2nccnc2c1 [UC-984842] | 91.3 ± 10.5% | 95.9 ± 6.2% |  |  |  |  |
| O=C(NNc1ccnc2c(C(F)(F)F)cccc12)c1cc2ccccc2[nH]1 [UC-177628] | 8.7 ± 4.7% | 12.3 ± 9% | 2.84 µM |  | inhibited RhoA-GTP formation |  |
| CSCCNc1nc(SCCC(F)(F)F)nc2c1ncn2[C@@H]1O[C@H](COP(=O)(O)OP(=O)(O)C(Cl)(Cl)P(=O)(O)O)[C@@H](O)[C@H]1O [Cangrelor, reference compound] | 27.7 ± 2.52% | 63.3 ± 4.16% |  |  |  |  |
| O=C(NNc1ccnc2ccccc12)Nc1ccccc1 [UC-177616] | 11.7 ± 2.3% | 10.6 ± 3.6% |  |  |  | 4.9 µM |
| N[C@@H](Cc1c[nH]c2ccccc12)C(=O)Nc1ccc2oc(C(=O)O)cc2c1 [UC-830013] | 93 ± 10.8% | 91.3 ± 14.7% |  |  |  |  |
| O=S(=O)(Nc1cc(C(F)(F)F)ccc1Cl)c1cccc2cccnc12 [UC-406794] | 12.7 ± 7.2% | 25 ± 5.2% |  |  |  | 5.2 µM |
| S=C(NNc1ccnc2ccccc12)Nc1ccccc1 [UC-177615] | 9.7 ± 6% | 11.4 ± 9.9% |  |  |  | 5.47 µM |
| Cc1ccc(C(=O)NNc2ccnc3c(C(F)(F)F)cccc23)cc1 [UC-177633] | 3.3 ± 3.2% | 10.1 ± 8.3% | 2.34 µM |  | inhibited RhoA-GTP formation | 2.38 µM |
| CN(Nc1ccnc2cc(C(F)(F)F)ccc12)C(N)=S [UC177623] | 84.3 ± 9% | 90.7 ± 6.2% |  |  |  |  |
| Cc1ccc(C(=O)NNc2ccnc3cc(C(F)(F)F)ccc23)cc1 [UC-177632] | 86.7 ± 11% | 93.1 ± 12.8% | > 20 µM |  |  |  |
| Cc1ccc(C(=O)NNc2cc(C)c3ccccc3n2)cc1 [UC-177635] | 79.1 ± 7% | 90.1 ± 8.3% | > 20 µM |  |  |  |
| O=C1OCCN1Nc1ccnc2ccccc12 [UC-177613] | 84.3 ± 15.5% | 95.2 ± 4.9% |  |  |  |  |
